In US5741790A, “Azetidines” (Pfizer Inc., priority 1996, dated 1998):

Legend:
[1] = target: T1, human NK2 receptor (Homo sapiens, UniProt P21452); test: NK2 receptor binding: competition with [3H] or [125I]NKA for binding to CHO cell membranes expressing cloned human NK2 receptor; details: membranes of Chinese hamster ovary cells expressing cloned human NK2 receptor, 90 min, 25° C., read-out: plC50, NK2 receptor binding activity (converted)
T1 construct: expressed in transfected cells; host or cells: Chinese hamster ovary (CHO) cells, membranes
T1 sequence (P21452 1-398): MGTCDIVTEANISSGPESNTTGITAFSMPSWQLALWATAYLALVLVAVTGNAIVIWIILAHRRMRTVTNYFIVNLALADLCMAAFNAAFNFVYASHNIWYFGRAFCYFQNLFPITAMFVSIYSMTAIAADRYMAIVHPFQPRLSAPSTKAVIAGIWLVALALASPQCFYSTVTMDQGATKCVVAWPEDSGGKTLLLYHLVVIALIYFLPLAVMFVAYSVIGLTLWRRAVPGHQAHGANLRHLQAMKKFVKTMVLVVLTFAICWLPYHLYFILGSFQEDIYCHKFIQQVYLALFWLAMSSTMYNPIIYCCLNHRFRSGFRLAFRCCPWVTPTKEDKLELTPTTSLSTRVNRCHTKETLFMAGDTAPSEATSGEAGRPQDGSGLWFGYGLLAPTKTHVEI
Method: The affinity of the compounds of formula (I) and their salts for the human NK2 receptor can be tested in vitro by testing their ability to compete with [^3 H] or […] (neurokinin A) for binding to membranes prepared from Chinese hamster ovary cells expressing the cloned human NK2 receptor. In this method, washed Chinese hamster ovary cell membranes are prepared as described for the previous method where IM9 cells are used instead. The membranes are incubated (90 min, 25° C.) with [^3 H] or [^125 I] NKA and with a range of concentrations of the test compound. Non-specific binding was determined in the presence of 10μM NKA.

[2] = target: T2, NK2 receptor (Oryctolagus cuniculus, UniProt P79218); test: NK2 receptor antagonist activity in vitro: antagonism of contractile effects of [βAla8]NKA(4-10) in rabbit pulmonary artery (Patacchini and Maggi); assay type: biochemical; details: agonist [βAla8]NKA(4-10), read-out: pA2, NK2 receptor antagonist activity (converted)
T2 construct: in the rabbit pulmonary artery; from tissue; host or cells: rabbit pulmonary artery
T2 sequence (P79218 1-384): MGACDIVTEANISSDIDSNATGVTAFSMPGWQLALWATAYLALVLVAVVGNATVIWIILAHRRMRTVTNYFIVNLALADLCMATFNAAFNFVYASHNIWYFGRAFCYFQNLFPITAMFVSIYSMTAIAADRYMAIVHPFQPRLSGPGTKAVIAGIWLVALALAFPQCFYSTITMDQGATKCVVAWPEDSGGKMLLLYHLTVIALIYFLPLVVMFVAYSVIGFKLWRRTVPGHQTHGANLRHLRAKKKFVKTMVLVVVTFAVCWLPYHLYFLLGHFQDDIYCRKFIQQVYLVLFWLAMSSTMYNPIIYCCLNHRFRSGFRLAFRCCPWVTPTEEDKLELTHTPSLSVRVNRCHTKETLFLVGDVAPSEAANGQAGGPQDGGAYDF
Description: The NK2 receptor antagonist activity of the compounds of the formula (I) can be tested, in vitro, by testing their ability to antagonise the contractile effects of the selective NK2 receptor agonist [βAla^8 ]NKA(4-10) in the rabbit pulmonary artery, using the method of Patacchini and Maggi, Eur. J. Pharmacol., 236, 31-37 (1993).

**Q.** What does the source list for `NS(=O)(=O)N1CCN(C2CN(CC[C@]3(c4ccc(Cl)c(Cl)c4)CCC(=O)N(CC4CCCCC4)C3=O)C2)CC1` [Example 3, 3(S)-3-(2-(3-(4-Aminosulphonylpiperazin-1-yl)azetidin-1-yl)ethyl)-1-cyclohexylmethyl-3-(3,4-dichlorophenyl)glutarimide]?
**A.** IC50 [1]: 0.501 nM; Kb [2]: 7.94 nM
